We go through 18 compounds from US8884030B2, “Inhibitors of Flaviviridae viruses” (priority 2010, dated 2014).

This test has as its system human hepatoma Huh-7 cell line harboring a HCV replicon. The test can be described thus: HCV replicon assay (inhibition of viral replication, luciferase). Conditions: Hepatitis C virus, 72 h; 2 μM; Huh-7 HCV replicon cells, 3 days incubation; inhibition of viral replication; read-out: % inhibition at 2 μM. Format: cell-based. The protocol:
The anti-HCV activity of the compounds of this invention was tested in a human hepatoma Huh-7 cell line harboring a HCV replicon. The assay comprised the following steps:
Step 1: Compound Preparation and Serial Dilution.
Serial dilution was performed in 100% DMSO in a 384-well plate. A solution containing a compound at 225-fold concentration of the starting final serial dilution concentration was prepared in 100% DMSO and 15 uL added to the pre-specified wells in column 3 or 13 of a polypropylene 384-well plate. The rest of the 384-well plate was filled with 10 uL 100% DMSO except for columns 23 and 24, where 10 uL of 500 uM a HCV protease inhibitor (ITMN-191) in 100% DMSO was added. The HCV protease inhibitor was used a control of 100% inhibition of HCV replication. The plate was then placed on a Biomek FX Workstation to start the serial dilution. The serial dilution was performed for ten cycles of 3-fold dilution from column 3 to 12 or from column 13 to 22.
Step 2: Cell Culture Plate Preparation and Compound Addition
To each well of a black polypropylene 384-well plate, 90 μL of cell media containing 1600 suspended Huh-7 HCV replicon cells was added with a Biotek uFlow Workstation. A volume of 0.4 μL of the compound solution was transferred from the serial dilution plate to the cell culture plate on a Biomek FX Workstation. The DMSO concentration in the final assay condition was 0.44%. The plates were incubated for 3 days at 37° C. with 5% CO2 and 85% humidity.
Step 3: Detection of Cytotoxicity and Inhibition of Viral Replication
a) Assessment of cytotoxicity: The media in the 384-well cell culture plate was aspirated with a Biotek EL405 plate-washer. A volume of 50 μL of a solution containing 400 nM Calcein AM in 100% PBS was added to each well of the plate with a Biotek uFlow Workstation. The plate was incubated for 30 minutes at room temperature before the fluorescence signal ([…]) was measured with a Perkin Elmer Envision Plate Reader.
b) Assessment of inhibition of viral replication: The calcein-PBS solution in the 384-well cell culture plate was aspirated with a Biotek EL405 plate-washer. A volume of 20 μL of Dual-Glo luciferase buffer (Promega, Dual-Glo Luciferase Assay Reagent, cat. #E298B) was added to each well of the plate with a Biotek uFlow Workstation. The plate was incubated for 10 minutes at room temperature. A volume of 20 μL of a solution containing 1:100 mixture of Dual-Glo Stop & Glo substrate(Promega, Dual-Glo Luciferase Assay Reagent, cat. #E313B) and Dual-Glo Stop & Glo buffer (Promega, Dual-Glo Luciferase Assay Reagent, cat. #E314B) was then added to each well of the plate with a Biotek uFlow Workstation. The plate was incubated at room temperature for 10 minutes before the luminescence signal was measured with a Perkin Elmer Envision Plate Reader.
The percent cytotoxicity was determined by calcein AM conversion to fluorescent product. The average fluorescent signal from the DMSO control wells were defined as 100% nontoxic. The individual fluorescent signal from testing compound treated well was divided by the average signal from DMSO control wells and then multiplied by 100% to get the percent viability. The percent anti-HCV replication activity was determined by the luminescence signal from the testing well compared to DMSO controls wells. The background signal was determined by the average luminescence signal from the HCV protease inhibitor treated wells and was subtracted from the signal from the testing wells as well as the DMSO control wells. Following 3-fold serial dilutions, the EC50 and CC50 values were calculated by fitting % inhibition at each concentration to the following equation: % inhibition=100%[(EC50/[l])^b+1]
Where b is Hill's coefficient. See, for reference, Hill, A. V., The Possible Effects of the Aggregation of the Molecules of Hæmoglobin on its Dissociation Curves, J. Physiol. 40: iv-vii. (1910). […]
Background: A replicon is a self-replicating genome or part of one, used to study replication in cells.
Usually inhibition stands for the drop in the measured response relative to a control, in per cent. Take `CC(C)(C)C#Cc1cc(N(C(=O)[C@H]2CC[C@H](C)CC2)[C@H]2CCN(C(=O)OC3CCNCC3)C2)c(C(=O)O)s1` [Compound 40, 3-(S)-[[2-carboxy-5-(3,3-dimethyl-but-1-ynyl)-thiophen-3-yl]-(4-trans-methyl-cyclohexanecarbonyl)-amino]-pyrrolidine-1-carboxylic acid piperidin-4-yl ester]: the inhibition at 2 µM was 98.6%. The value for `CC1CCC(C(=O)N(c2cc(C#CC(C)(C)C)sc2C(=O)O)C2CCC(NC(=O)OC3CN(C(=O)OC(C)(C)C)C3)CC2)CC1` (stereo not drawn) [Compound 186, 3-{4-[[2-carboxy-5-(3,3-dimethyl-but-1-ynyl)-thiophen-3-yl]-(4-methyl-cyclohexanecarbonyl)-amino]-cyclohexylcarbamoyloxy}-azetidine-1-carboxylic acid tert-butyl ester] was 98.9%. For `CC(C)(C)C#Cc1cc(N(C(=O)[C@H]2CC[C@H](C)CC2)C2CCC(NC(=O)OC3(C)CCN(C(=O)OC(C)(C)C)C3)CC2)c(C(=O)O)s1` (stereo partly drawn) [Compound 75], the inhibition at 2 µM is 97.5%. In the case of `CC1CCC(C(=O)N(c2cc(C#CC(C)(C)C)sc2C(=O)O)C2CCC(NN(C)C(=O)OC3CCOCC3)CC2)CC1` (stereo not drawn) [Compound 217, 5-(3,3-dimethyl-but-1-ynyl)-3-((4-methyl-cyclohexanecarbonyl)-{4-[N′-methyl-N′-(tetrahydro-pyran-4-yloxycarbonyl)-hydrazino]-cyclohexyl}-amino)-thiophene-2-carboxylic acid], the inhibition at 2 µM came to 100%. To `CC(C)(C)C#Cc1cc(N(C(=O)[C@H]2CC[C@H](C)CC2)[C@H]2CCN(C(=O)O[C@H]3CO[C@H]4OCC[C@H]43)C2)c(C(=O)O)s1` [Compound 35, 3-(S)-[[2-Carboxy-5-(3,3-dimethyl-but-1-ynyl)-thiophen-3-yl]-(4-methyl-cyclohexanecarbonyl)-amino]-pyrrolidine-1-carboxylic acid hexahydro-furo[2,3-b]furan-3-(R)-yl ester] belongs 99.8%; to `CC1CCC(C(=O)N(c2cc(C#CC(C)(C)C)sc2C(=O)O)N(C)C)CC1` (stereo not drawn) [Compound 136, 5-(3,3-dimethyl-but-1-ynyl)-3-[N′-dimethyl-N-(4-methyl-cyclohexanecarbonyl)-hydrazino]-thiophene-2-carboxylic acid], 98.9%; to `CC(C)(C)C#Cc1cc(N(C(=O)[C@H]2CC[C@H](C)CC2)C2CCC(NC(=O)O[C@H]3CO[C@H]4OCC[C@H]43)CC2)c(C(=O)O)s1` (stereo partly drawn) [Compound 66, 5-(3,3-Dimethyl-but-ynyl)-3-[[4-(hexahydro-furo[2,3-b]furan-3-yloxycarbonylamino)-cyclohexyl]-(trans-4-methyl-cyclohexanecarbonyl)-amino]-thiophene-2-carboxylic acid], 99.9%.

In the case of `CC1CCC(C(=O)N(c2cc(C#CC(C)(C)C)sc2C(=O)O)N(CCO)C2COC2)CC1` (stereo not drawn) [Compound 134, 5-(3,3-dimethyl-but-1-ynyl)-3-[N′-(2-hydroxy-ethyl)-N-(4-methyl-cyclohexanecarbonyl)-N′-oxetan-3-yl-hydrazino]-thiophene-2-carboxylic acid], the inhibition at 2 µM turned out to be 99%. For `CC(C)(C)C#Cc1cc(N(C(=O)[C@H]2CC[C@H](C)CC2)C2CCN(C(=O)O[C@H]3CNC(=O)C3)CC2)c(C(=O)O)s1` [Compound 55, 4-[[2-carboxy-5-(3,3-dimethyl-but-1-ynyl)-thiophen-3-yl]-(4-trans-methyl-cyclohexanecarbonyl)-amino]-piperidine-1-carboxylic acid 5-oxo-pyrrolidin-3-(R)-yl ester], the inhibition at 2 µM was 87.9%. `CC1CCC(C(=O)N(c2cc(C#CC(C)(C)C)sc2C(=O)O)C2CCC(NN(C)c3nccs3)CC2)CC1` (stereo not drawn) [Compound 81, 5-(3,3-Dimethyl-but-1-ynyl)-3-{(4-methyl-cyclohexanecarbonyl)-[4-(N′-methyl-N′-thiazol-2-yl-hydrazino)-cyclohexyl]-amino}-thiophene-2-carboxylic acid]: the inhibition at 2 µM was found to be 100%. In the case of `CC(C)(C)C#Cc1cc(N(C(=O)[C@H]2CC[C@H](C)CC2)C2CCC(=NOCC#N)CC2)c(C(=O)O)s1` (stereo partly drawn) [Compound 116, 3-(N-(4-(Cyanomethoxyimino)cyclohexyl)-4-methylcyclohexanecarboxamido)-5-(3,3-dimethylbut-1-ynyl)thiophene-2-carboxylic acid], the inhibition at 2 µM was 99.9%. Consider `CC(C)(C)C#Cc1cc(N(C(=O)[C@H]2CC[C@H](C)CC2)C2CCN(C(=O)OC3(C)CN(C(=O)OC(C)(C)C)C3)CC2)c(C(=O)O)s1` [Compound 73, 4-[[2-carboxy-5-(3,3-dimethyl-but-1-ynyl)-thiophen-3-yl]-(trans-4-methyl-cyclohexanecarbonyl)-amino]-piperidine-1-carboxylic acid 1-tert-butoxycarbonyl-3-methyl-azetidin-3-yl ester], for which the inhibition at 2 µM was 93.1%. To `C[C@@H](CCNC(=O)O[C@H]1CO[C@H]2OCC[C@H]21)N(c1cc(C#CC(C)(C)C)sc1C(=O)O)C(=O)[C@H]1CC[C@H](C)CC1` [Compound 64, 5-(3,3-Dimethyl-but-1-ynyl)-3-[[3-(hexahydro-furo[2,3-b]furan-3-yloxycarbonylamino)-1-(S)-methyl-propyl]-(trans-4-methyl-cyclohexanecarbonyl)-amino]-thiophene-2-carboxylic acid] belongs 100%; to `CC(C)(C)C#Cc1cc(N(C(=O)[C@H]2CC[C@H](C)CC2)[C@H]2CCN(C(=O)OC3CCS(=O)(=O)C3)C2)c(C(=O)O)s1` (stereo partly drawn) [Compound 70, 3-[[2-carboxy-5-(3,3-dimethyl-but-1-ynyl)-thiophene-3-yl]-(trans-4-methylcyclohexanecarbonyl)-3-(S)-amino]-pyrrolidine-1-carboxylic acid 1,1-dioxo-tetrahydro-1λ^6-thiophene-3-yl ester], 99.1%. Take `CC(C)(C)C#Cc1cc(N(C(=O)[C@H]2CC[C@H](C)CC2)C2CCC(NC(=O)O[C@H]3CNC(=O)C3)CC2)c(C(=O)O)s1` (stereo partly drawn) [Compound 49, 5-(3,3-dimethyl-but-1-ynyl)-3-{(4-trans-methyl-cyclohexanecarbonyl)-[4-(5-oxo-pyrrolidin-3-(S)-yloxycarbonylamino)-cyclohexyl]-amino}-thiophene-2-carboxylic acid]: the inhibition at 2 µM came out at 99.2%. The value for `CC(C)(C)C#Cc1cc(N(C(=O)[C@H]2CC[C@H](C)CC2)C2CCC(=NOCc3ccccc3)CC2)c(C(=O)O)s1` (stereo partly drawn) [Compound 113] was 98.1%; that for `C[C@@H](CCNC(=O)O[C@@H]1CCOC1)N(c1cc(C#CC(C)(C)C)sc1C(=O)O)C(=O)[C@H]1CC[C@H](C)CC1` [Compound 65, 5-(3,3-dimethyl-but-1-ynyl)-3-[[trans-4-methyl-cyclohexanecarbonyl)-[1-(S)-methyl-3-(tetrahydrofuran-3-yloxycarbonylamino)-propyl]-amino]-thiophene-2-carboxylic acid] was 99.9%. As to `CC(C)(C)C#Cc1cc(N(C(=O)[C@H]2CC[C@H](C)CC2)[C@H]2CCN(C(=O)O[C@@H]3CCCNC3)C2)c(C(=O)O)s1` [Compound 38, 3-(S)-[[2-carboxy-5-(3,3-dimethyl-but-1-ynyl)-thiophen-3-yl]-(4-trans-methyl-cyclohexanecarbonyl)-amino]-pyrrolidine-1-carboxylic acid piperidin-3-(R)-yl ester], the inhibition at 2 µM worked out at 99.6%.
